According to patent US20250134874A1, “PHARMACEUTICAL FORMULATIONS COMPRISING 3-({[(4R)-7-{METHYL[4-(PROPAN-2-YL)PHENYL]AMINO}-3,4-DIHYDRO-2H-1-BENZOPYRAN-4-YL]METHYL}AMINO)PYRIDINE-4-CARBOXYLIC ACID” (TACHYON THERAPEUTICS, INC., priority 2021, published 2025):

Tested on: 301 cancer cell lines from different tumor types (OncoPanel; HD Biosciences)
Assay: 2D cell viability inhibition assay (CellTiter-Glo) in cancer cell line panel
Type: cell-based
Conditions: Homo sapiens
Protocol: In a larger screening study, compound 1 was evaluated across a broad cancer cell line panel (OncoPanel; HD Biosciences) composed of 301 cancer cell lines from different tumor types.
2D cell viability inhibition assays were performed in multiwell plates seeded with cells from the panel. After seeding, the plates were cultured overnight in a humidified incubator at 37° C. to promote adherence. Assays were initiated in individual wells by adding either DMSO as a vehicle control, growth media as a blank, or serially diluted compound 1 (10 μM to 0.0005 μM with 1:3 serial dilution). Cultures were incubated for 168 hours after which the number of viable cells in each test well was assessed using the CellTiter-Glo® Luminescent Cell Viability Assay. Luminescence readouts were performed using an EnVision® Multilabel Reader and the compound 1 readouts were normalized to the DMSO control readouts, expressed as a percent of the control. Outliers were flagged out by visual inspection. Percent of control was plotted against the corresponding compound 1 concentration and the absolute IC50 value was determined using four-parameter logistic non-linear regression as the concentration where inhibition was 50% of the control. For maximum inhibition <50%, the absolute IC50 was reported as >10. In addition to EC50 and IC50, AUC was determined and was normalized to the area corresponding to theoretical no-inhibition (the rectangular area defined by the compound dose range and 0 to 100 in y). Emax was recorded as the minimum in y with the compound dose range. For those cell lines where Emax>40, EC50 was manually set to 10 μM. A hierarchical clustering algorithm based on Euclidean distance between the standardized input values and “Ward.D” method as implemented in R hclust function was used to visualize the compound 1 cellular potency data. The sensitive/moderate/resistant calls for each cell line was determined by visually inspecting the resulting clustering dendrogram. All the analyses were done in R Core Team.

In the case of `CC(C)c1ccc(N(C)c2ccc3c(c2)OCC[C@H]3CNc2cnccc2C(=O)O)cc1` [Compound 1, 3-({[(4R)-7-{methyl[4-(propan-2-yl)phenyl]amino}-3,4-dihydro-2H-1-benzopyran-4-yl]methyl}amino)pyridine-4-carboxylic acid], the EC50 (KYSE-30, KYSE30 cell line) is reported as at least 10000 nM, the IC50 (KYSE-30, KYSE30 cell line) is reported as 2.43 nM and the IC50 (KYSE-70, 168 h, KYSE70, oesophagus, squamous cell carcinoma, 168 hours) is reported as over 10000 nM. The EC50 (KYSE-150, KYSE150 cell line) was 4.41 nM, the IC50 (KYSE-150, KYSE150 cell line) was 5.1 nM and the EC50 (KYSE-270, KYSE270 cell line) was 5.11 nM. It also gave an IC50 (KYSE-270, KYSE270 cell line) of 5.35 nM, an EC50 (KYSE-410, KYSE410 cell line) of 5.47 nM and an IC50 (KYSE-410, KYSE410 cell line) of 8.25 nM. The EC50 (KYSE-510, KYSE510 cell line) was 3.42 nM, the IC50 (KYSE-510, KYSE510 cell line) was 3.4 nM and the IC50 (Kasumi 1, 168 h, KASUMI1, haematopoietic and lymphoid tissue, acute myeloid leukaemia, 168 hours) was over 10000 nM. The EC50 (LNCaP, LNCAP cell line) was 3.54 nM, the IC50 (LNCaP, LNCAP cell line) was 4.65 nM and the EC50 (LS-411N, LS411N cell line) was 16.8 nM. It also gave an IC50 (LS-411N, LS411N cell line) of 16.7 nM, an IC50 (LoVo, LOVO cell line) of 57.8 nM and an EC50 (Lu-65, LU65 cell line) of 7.19 nM. The IC50 (Lu-65, LU65 cell line) was 10.6 nM, the IC50 (Lu-99, 168 h, LU99, lung, large cell carcinoma, 168 hours) was over 10000 nM and the EC50 (MC116, MC116 cell line) was 5.21 nM. It also gave an IC50 (MC116, MC116 cell line) of 4.6 nM, an IC50 (MCF7, MCF7 cell line) of 435 nM and an IC50 (MDA-MB-157, 168 h, MDAMB157, breast, ductal carcinoma, 168 hours) of over 10000 nM. It also gave an IC50 (MDA-MB-175-VII, 168 h, MDAMB175VII, breast, ductal carcinoma) of over 10000 nM, an IC50 (MDA-MB-231, 168 h, MDAMB231, breast, NS, 168 hours) of over 10000 nM and an IC50 (MDA-MB-361, 168 h, MDAMB361, breast, NS, 168 hours) of over 10000 nM. For the same compound, the IC50 (MDA-MB-415, 168 h, MDAMB415, breast, NS, 168 hours) was over 10000 nM, the IC50 (MDA-MB-436, 168 h, MDAMB436, breast, NS, 168 hours) was over 10000 nM and the EC50 (MDA-MB-453, MDAMB453 cell line) was 8.03 nM. It also gave an IC50 (MDA-MB-453, MDAMB453 cell line) of 10.4 nM, an IC50 (MDA-MB-468, 168 h, MDAMB468, breast, NS, 168 hours) of over 10000 nM and an EC50 (MES-SA, MESSA cell line) of 9 nM. It also gave an IC50 (MES-SA, MESSA cell line) of 14.3 nM, an EC50 (MIA PaCa-2, MIAPACA2 cell line) of 5.28 nM and an IC50 (MIA PaCa-2, MIAPACA2 cell line) of 7.02 nM. It also gave an EC50 (MKN-1, MKN1 cell line) of 4.33 nM, an IC50 (MKN-1, MKN1 cell line) of 5.75 nM and an EC50 (MKN-45, MKN45 cell line) of 11 nM. The IC50 (MKN-45, MKN45 cell line) was 13.5 nM, the EC50 (MOLT-4, MOLT4 cell line) was 0.508 nM and the IC50 (MOLT-4, MOLT4 cell line) was 1.25 nM. It also gave an EC50 (MV4-11, MV411 cell line) of 3.92 nM, an IC50 (MV4-11, MV411 cell line) of 4.02 nM and an IC50 (Malme-3M, 168 h, MALME3M, skin, NS) of over 10000 nM. The IC50 (MeWo, 168 h, skin, NS) was over 10000 nM, the EC50 (NCI-H23, NCIH23 cell line) was 37.7 nM and the IC50 (NCI-H23, NCIH23 cell line) was 42.7 nM. It also gave an EC50 (NCI-H69, NCIH69 cell line) of 7.14 nM, an IC50 (NCI-H69, NCIH69 cell line) of 7.09 nM and an EC50 (NCI-H82, NCIH82 cell line) of 3.31 nM. It also gave an IC50 (NCI-H82, NCIH82 cell line) of 3.54 nM, an EC50 (NCI-H209, NCIH209 cell line) of 1.48 nM and an IC50 (NCI-H209, NCIH209 cell line) of 1.31 nM. It also gave an EC50 (NCI-H358, NCIH358 cell line) of 3.05 nM, an IC50 (NCI-H358, NCIH358 cell line) of 6.57 nM and an IC50 (NCI-H441, 168 h, NCIH441, lung, adenocarcinoma, 168 hours) of over 10000 nM. The EC50 (NCI-H446, NCIH446 cell line) was 14.5 nM, the IC50 (NCI-H446, NCIH446 cell line) was 119 nM and the EC50 (NCI-H460, NCIH460 cell line) was 11.1 nM. For the same compound, the IC50 (NCI-H460, NCIH460 cell line) was 11.6 nM, the EC50 (NCI-H508, NCIH508 cell line) was 9.16 nM and the IC50 (NCI-H508, NCIH508 cell line) was 10.2 nM. It also gave an EC50 (NCI-H520, NCIH520 cell line) of 5.06 nM, an IC50 (NCI-H520, NCIH520 cell line) of 5.9 nM and an EC50 (NCI-H522, NCIH522 cell line) of 11.5 nM. For the same compound, the IC50 (NCI-H522, NCIH522 cell line) was 17.4 nM, the EC50 (NCI-H524, NCIH524 cell line) was 4.98 nM and the IC50 (NCI-H524, NCIH524 cell line) was 6.85 nM. For the same compound, the IC50 (NCI-H596, 168 h, NCIH596, lung, mixed adenosquamous carcinoma, 168 hours) was over 10000 nM, the EC50 (NCI-H647, NCIH647 cell line) was 6.04 nM and the IC50 (NCI-H647, NCIH647 cell line) was 9.84 nM. It also gave an EC50 (NCI-H661, NCIH661 cell line) of 9.06 nM, an IC50 (NCI-H661, NCIH661 cell line) of 9.73 nM and an EC50 (NCI-H716, NCIH716 cell line) of 5.77 nM. For the same compound, the IC50 (NCI-H716, NCIH716 cell line) was 9.51 nM, the EC50 (NCI-H929, NCIH929 cell line) was 20.6 nM and the IC50 (NCI-H929, NCIH929 cell line) was 34.5 nM. For the same compound, the EC50 (NCI-H1048, NCIH1048 cell line) was 0.508 nM, the IC50 (NCI-H1048, NCIH1048 cell line) was 0.706 nM and the EC50 (NCI-H1092, NCIH1092 cell line) was 3.93 nM. The IC50 (NCI-H1092, NCIH1092 cell line) was 7.16 nM, the EC50 (NCI-H1155, NCIH1155 cell line) was 0.884 nM and the IC50 (NCI-H1155, NCIH1155 cell line) was 0.765 nM. It also gave an EC50 (NCI-H1299, NCIH1299 cell line) of 5.38 nM, an IC50 (NCI-H1299, NCIH1299 cell line) of 7.5 nM and an EC50 (NCI-H1355, NCIH1355 cell line) of at least 10000 nM. It also gave an IC50 (NCI-H1355, NCIH1355 cell line) of 20.6 nM, an IC50 (NCI-H1395, 168 h, NCIH1395, lung, adenocarcinoma, 168 hours) of over 10000 nM and an EC50 (NCI-H1436, NCIH1436 cell line) of at least 10000 nM. The IC50 (NCI-H1436, NCIH1436 cell line) was 8.75 nM, the EC50 (NCI-H1437, NCIH1437 cell line) was 9.48 nM and the IC50 (NCI-H1437, NCIH1437 cell line) was 13.1 nM. The IC50 (NCI-H1563, 168 h, NCIH1563, lung, adenocarcinoma, 168 hours) was over 10000 nM, the IC50 (NCI-H1573, 168 h, NCIH1573, lung, adenocarcinoma, 168 hours) was over 10000 nM and the EC50 (NCI-H1623, NCIH1623 cell line) was 8.13 nM. The IC50 (NCI-H1623, NCIH1623 cell line) was 18.9 nM, the IC50 (NCI-H1650, 168 h, NCIH1650, lung, bronchioloalveolar adenocarcinoma, 168 hours) was over 10000 nM and the EC50 (NCI-H1666, NCIH1666 cell line) was 0.508 nM. For the same compound, the IC50 (NCI-H1666, NCIH1666 cell line) was 1.17 nM, the EC50 (NCI-H1694, NCIH1694 cell line) was 0.508 nM and the IC50 (NCI-H1694, NCIH1694 cell line) was 1.75 nM. It also gave an EC50 (NCI-H1703, NCIH1703 cell line) of 4.88 nM, an IC50 (NCI-H1703, NCIH1703 cell line) of 8.05 nM and an IC50 (NCI-H1734, NCIH1734 cell line) of over 10000 nM. The IC50 (NCI-H1755, 168 h, NCIH1755, lung, adenocarcinoma, 168 hours) was over 10000 nM, the EC50 (NCI-H1793, NCIH1793 cell line) was 8.36 nM and the IC50 (NCI-H1793, NCIH1793 cell line) was 15.3 nM. The EC50 (NCI-H1836, NCIH1836 cell line) was 4.88 nM, the IC50 (NCI-H1836, NCIH1836 cell line) was 6.07 nM and the IC50 (NCI-H1838, 168 h, NCIH1838, lung, non-small cell carcinoma, 168 hours) was over 10000 nM. The EC50 (NCI-H1930, NCIH1930 cell line) was 6.62 nM and the IC50 (NCI-H1930, NCIH1930 cell line) was 20 nM.
